Like-named read-outs stand apart in the source and are kept apart here.
What was measured:
Ring stage 3D7 parasites = assay: Food vacuole integrity, Fluo-4-AM confocal microscopy; type: cell-based, Plasmodium falciparum; details: 1 μM, positive control, 24 hours
Method: FIG. 17 are images showing that anti-PfGARP disrupts food vacuole integrity. Ring stage 3D7 parasites were treated with pre-immune sera (1:10), 1 μM chloroquine, or anti-PfGARP antisera (1:10) for 24 hours, followed by staining with DAPI and Fluo-4-AM. […] Data are representative of 2 independent experiments.
The impact of anti-PfGARP antibodies on food vacuole integrity by confocal microscopy was evaluated using the calcium binding dye Fluo-4-AM, which preferentially labels the food vacuole and has been used to distinguish the food vacuole from the endoplasmic reticulum (Zhang, M. et al. Science 360 (2018)).
The impact of anti-PfGARP antibodies on food vacuole integrity was further evaluated by confocal microscopy using the calcium binding dye Fluo-4-AM, which specifically labels the food vacuole. Ring stage 3D7 parasites were incubated with culture media (negative control), 1 μM chloroquine (positive control), or anti-PfGARP prepared by rPfGARP-A immunization for 24 hours. Parasites were washed with 1×PBS three times and incubated with Fluo-4-AM (a cell-permeable calcium-sensing dye that fluoresces green when bound with Ca^+2) at a final concentration of 2 μM and DAPI for 30 minutes, at 37° C. The parasites were washed with 1×PBS and observed under a fluorescent microscope.

[1] = system: food vacuole of parasites; details: cited from earlier work

Question: For `CCN(CC)CCCC(C)Nc1ccnc2cc(Cl)ccc12` (stereo not drawn) [chloroquine], which “food vacuole integrity (Fluo-4-AM redistribution)” value (Ring stage 3D7 parasites) is on record?
Answer: disrupts the food vacuole leading to dispersion of the dye into the parasite's cytosol

Question: What about the “effect on food vacuole” value ([1]; high concentrations (3 μM)) of the same molecule?
Answer: disrupts the food vacuole membrane

Question: What about the “effect on food vacuole” value ([1]; lower concentrations (68 nM)) of the same molecule?
Answer: marked food vacuole swelling, but no extravasation of hemozoin into the cytoplasm

Reference: patent US12037386B2, “Antibodies to PfGARP kill Plasmodium falciparum malaria parasites and protect against infection and severe disease” (priority 2020, dated 2024)
